# Assay results from PubChem BioAssay AID488808 (NMMLSC, 2010).
# Activity calls are given as the source filed them.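 How the source made its calls: active means EC50 at or below 33 microM; inactive means the rest.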
# Test system: S. cerevisiae RPL19A-GFP strain, flow cytometry fluorescence, 3 h
# Assay: yeast TOR reporter RPL19A-GFP, SAR compounds – cell-based, S. cerevisiae, flow cytometry, KU SAR compounds, SAR follow-up (AID 488808)
row,Compound,EC50
1,c1ccc(-c2cccc(-c3ccccn3)n2)nc1,49.9 µM (inactive)
2,O=C(OCn1ncc(Br)c(Br)c1=O)c1c(F)cccc1F,3.55 µM
3,CN(C)CCCNc1nc(N)c([N+](=O)[O-])c(Nc2cccc(F)c2)n1,106 µM (inactive)
4,Cc1ccc2nc(Cl)c3nnnn3c2c1,2.11 µM
5,CSC1=NS(=O)(=O)c2c(C)nn(C)c2S1,175 µM (inactive)
6,O=C(Oc1c(Cl)cc(Cl)c2cccnc12)c1cccc([N+](=O)[O-])c1,59.9 µM (inactive)
7,C/C(=N\NC(=O)c1ccc(C(C)(C)C)cc1)c1ccccn1,293 µM (inactive)
8,Cc1ccc(S(=O)(=O)c2ccc([N+](=O)[O-])cn2)cc1,3.77 µM
9,O=C(OCn1ncc(Br)c(Br)c1=O)c1ccc(F)cc1,4.53 µM
10,Cc1nn2c(-c3ccncc3)nnc2c2ccccc12,4.6 µM
11,CCOC(=O)CS(=O)(=O)c1nc(-c2ccccc2)cc(C(F)(F)F)n1,30.2 µM
12,CCc1ccc(OCC(=O)NNC(=S)NC(=O)C2CC2)c(Br)c1,2.74 µM
13,CC(=O)Nc1ncnc2c1c(-c1ccc(Cl)cc1)nn2C(C)(C)C,11.5 µM
14,COc1ccc(C(=O)NC(=S)NNC(=O)c2cnccn2)cc1,0.71 µM
15,CCOC(=O)CCS(=O)(=O)c1nc(-c2ccccc2)cc(C(F)(F)F)n1,47.9 µM (inactive)
16,CCOC(=O)c1c(C)oc2c1c(C(c1cccnc1)N1CCOCC1)c(O)c1ccccc12 (configuration not stated),2.78 µM
17,O=C(OCC(=O)N1CCN(C(=O)c2ccco2)CC1)c1cc(-c2ccc(F)cc2)nc2ccccc12,3.01 µM
18,CSc1nnc2c3cc(F)ccc3n(C)c2n1,1.14 µM
19,CCOC(=O)CSC1=NC(=O)/C(=C\c2ccc(Cl)cc2)S1,16 µM

row,Compound,EC50
1,Clc1ccc(N=c2ssnc2Cl)cc1,2.03 µM
2,O=[N+]([O-])c1ccc(O)c2ncccc12,25.4 µM
3,COc1ccc([N+](=O)[O-])c(S(=O)(=O)c2ccc(Cl)cc2)n1,4.49 µM
4,O=c1cc(CSc2ccc(Cl)cc2)nc(-c2ccccn2)[nH]1,1.27 µM
5,COc1ccc(/C=C/C(=O)NC(=S)NNC(=O)c2cnccn2)cc1,11.4 µM
6,Nc1cc(Oc2cccc(Cl)c2)nc(NCc2ccccc2)n1,252 µM (inactive)
7,CN1CCN(C(=O)c2cc(COc3c(F)cccc3F)on2)CC1c1ccccc1 (configuration not stated),58.4 µM (inactive)
8,CCC(C)Nc1nc(N)c([N+](=O)[O-])c(Nc2cccc(F)c2)n1 (configuration not stated),50 µM (inactive)
9,CC(Oc1ccc(Cl)cc1)C(=O)NNC(=S)NC(=O)c1ccco1 (configuration not stated),3.54 µM
10,CC(C)(C)n1nc(-c2ccc(F)cc2)c2c(N)ncnc21,1.01 µM
11,O=S(=O)(CCN(CCS(=O)(=O)C(F)(F)F)CC1CCCO1)C(F)(F)F (configuration not stated),21.7 µM
12,O=C(OCC(=O)N1CCN(C(=O)c2ccco2)CC1)c1cc(-c2cccc(Br)c2)nc2ccccc12,8.08 µM
13,O=C(Oc1ccnc2cc(Cl)ccc12)N1CCCCCC1,16.7 µM
14,O=[N+]([O-])c1cc(S(=O)(=O)C(F)(F)F)ccc1Sc1nc2ccccc2s1,17.3 µM
15,CC(C)(C)C(=O)NC(=S)NNC(=O)c1ccc(-c2ccccc2)cc1,30.2 µM
16,CC(C)(C)c1ccc(NC(=O)COC(=O)c2ccc([N+](=O)[O-])s2)cc1,2.02 µM
17,C[C@H]1C[C@@H](C)C(=O)[C@@H]([C@H](O)CC2CC(=O)NC(=O)C2)C1,0.42 µM
18,O=[N+]([O-])c1cc(Cl)c2cccnc2c1O,27.2 µM
19,Cn1ncc(S(=O)(=O)Cc2ccccc2)c(Cl)c1=O,2.73 µM

row,Compound,EC50
1,O=[N+]([O-])c1ccc(S(=O)(=O)c2cccc(C(F)(F)F)c2)nc1,1.37 µM
2,CCN(CC)C(=O)Oc1ccnc2cc(Cl)ccc12,119 µM (inactive)
3,Nc1cc(Nc2cccc(F)c2)nc(NCc2ccccc2)n1,292 µM (inactive)
4,Cc1ccc(C(=O)NNC(=S)NC(=O)COc2ccccc2)cc1,52.7 µM (inactive)
5,COC(=O)CCS(=O)(=O)c1nc(-c2ccccc2)cc(C(F)(F)F)n1,66.5 µM (inactive)
6,Cc1cc(C(=O)COC(=O)c2ccc[nH]c2=O)c(C)n1-c1ccccc1F,3.28 µM
7,COc1ccc([N+](=O)[O-])c(S(=O)(=O)c2ccccc2)n1,35.4 µM (inactive)
8,Cc1ccc(NC(=O)c2cc(N3C(=O)C=CC3=O)ccc2N2CCOCC2)cc1Cl,0.78 µM
9,O=C(NC(=S)NNC(=O)c1cnccn1)c1ccc(F)cc1,3.66 µM
10,CNc1nc(N)c([N+](=O)[O-])c(Nc2cccc(F)c2)n1,5.19 µM
11,CC1=NN(c2ccccc2)C(=O)C1C(c1ccccc1[N+](=O)[O-])C(C#N)C#N (configuration not stated),3.65 µM
12,Cc1ccc(-c2nn(C(C)(C)C)c3ncnc(N)c23)cc1,1.19 µM
13,C[C@@H]1C[C@@H]([C@H](O)CC2CC(=O)NC(=O)C2)C(=O)[C@@H](C)C1,0.87 µM
14,Cc1ccc(S(=O)(=O)c2ncccc2[N+](=O)[O-])cc1,68.6 µM (inactive)
15,CC(C)(C)n1nc(-c2ccc(Cl)cc2)c2c(N)ncnc21,0.42 µM
16,Cc1ccc(NC(=O)c2ccc(Cl)c(N3C(=O)C=CC3=O)c2)cc1,3.03 µM
17,CC(C)(C)C(=O)C(Cl)C(=O)Nc1ccccc1 (configuration not stated),4.18 µM
18,Cc1cc(C(=O)Nc2nc(-c3ccccn3)cs2)ccc1[N+](=O)[O-],85.3 µM (inactive)
19,CNc1nc(N)c([N+](=O)[O-])c(Nc2cc(OC)ccc2OC)n1,3.04 µM
